Where a name gives a salt, the structure may show the parent alone.
Test: Bloodwork: complete blood count, electrolytes, extended blood chemistry
Assay type: in vivo, sheep
Description: Indirect blood pressure, pulse recording, pain testing (mechanical stimulus device, cold and warm water baths see description in procedure) and weight were taken on days 1, 3, 7, 15, 22, 29, 36, and 43. Venous blood samples (15 ml drawn from the jugular vein with Vacutainer brand blood collection tubes) for complete blood count, electrolytes, and extended blood chemistry were drawn on days 1, 15, and 43 (mild procedure only light hand restraint necessary).

[1] = sheep Chicken Hawk #87, 5 mg/day, Day 1
[2] = sheep Chicken Hawk #87, 5 mg/day, Day 15
[3] = sheep Chicken Hawk #87, 5 mg/day, Day 43
[4] = sheep Elmer Fudd #437, 5 mg/day, Baseline
[5] = sheep Elmer Fudd #437, 5 mg/day, Day 1
[6] = sheep Elmer Fudd #437, 5 mg/day, Day 15
[7] = sheep Elmer Fudd #437, 5 mg/day, Day 43

## Cc1ncc2n1-c1ccc(Cl)cc1C(c1ccccc1F)=NC2 [Midazolam, midazolam hydrochloride]
[1]
  Glucose: 67 mg/dL
  Hct: 34.1%
  Hgb: 11.7 g/dL
  K+: 4.5 mEq/l
  MCH: 30.9 pg
  MCHC: 34.3 g/dL
  MCV: 30.19 fL
  Na+: 150 mEq/l
  Phos: 6.6 mg/dL
  Platlet Count: 1.28e+06 µL⁻¹
  RBC: 1.1e+07 µL⁻¹
  Total Bili: 0.1 mg/dL
  Total Prot: 5.7 g/dL
  WBC: 6000 µL⁻¹
[2]
  ALT: 6 U/L
  AST: 58 U/L
  Albumin: 3.8 g/dL
  Alk Phos: 79 U/L
  BUN: 17 mg/dL
  CPK: 425 U/L
  Cholesterol: 61 mg/dL
  Creatinine: 1.3 mg/dL
  Differential Count: Atyp lym: 0%
  Differential Count: Baso: 1%
  Differential Count: Eosin: 4%
  Differential Count: Lymph: 62%
  Differential Count: Mono: 4%
  Differential Count: Seg: 29%
  Gamma GT: 64 U/L
  Glucose: 79 mg/dL
  Hct: 29.8%
  Hgb: 10.0 g/dL
  K+: 4.7 mEq/l
  MCH: 10.4 pg
  MCHC: 33.6 g/dL
  MCV: 30.8 fL
  Na+: 148 mEq/l
  Phos: 5.0 mg/dL
  Platlet Count: 1.018e+06 µL⁻¹
  RBC: 9.7e+06 µL⁻¹
  Total Bili: 0.1 mg/dL
  Total Prot: 6.2 g/dL
  WBC: 5690 µL⁻¹
[3]
  ALT: 8 U/L
  AST: 62 U/L
  Albumin: 3.8 g/dL
  Alk Phos: 149 U/L
  BUN: 14 mg/dL
  CPK: 61 U/L
  Cholesterol: 62 mg/dL
  Creatinine: 1.1 mg/dL
  Differential Count: Atyp lym: 1%
  Differential Count: Baso: 1%
  Differential Count: Eosin: 5%
  Differential Count: Lymph: 53%
  Differential Count: Mono: 3%
  Differential Count: Seg: 37%
  Gamma GT: 55 U/L
  Glucose: 82 mg/dL
  Hct: 32.3%
  Hgb: 10.7 g/dL
  K+: 5.0 mEq/l
  MCH: 10.5 pg
  MCHC: 33.0 g/dL
  MCV: 31.7 fL
  Na+: 147 mEq/l
  Phos: 6.5 mg/dL
  Platlet Count: 891000 µL⁻¹
  RBC: 1.02e+07 µL⁻¹
  Total Bili: 0.1 mg/dL
  Total Prot: 6.5 g/dL
  WBC: 5130 µL⁻¹
[4]
  Differential Count: Atyp lym: 0%
  Differential Count: Bands: 0%
  Differential Count: Eosin: 54%
  Differential Count: Lymph: 35%
  Differential Count: Mono: 9%
  Differential Count: Seg: 51%
  Hct: 38.5%
  Hgb: 13.4 g/dL
  MCH: 12.0 pg
  MCHC: 34.7 G/dl
  MCV: 34.5 fL
  Platlet Count: 562000 µL⁻¹
  RBC: 1.12e+07 µL⁻¹
  WBC: 5320 µL⁻¹
[5]
  ALT: 8 U/L
  AST: 70 U/L
  Albumin: 4.1 g/dL
  Alk Phos: 49 U/L
  BUN: 17 mg/dL
  CPK: 49 U/L
  Cholesterol: 78 mg/dL
  Creatinine: 1.3 mg/dL
  Differential Count: Atyp lym: 0%
  Differential Count: Bands: 1%
  Differential Count: Eosin: 1%
  Differential Count: Lymph: 31%
  Differential Count: Mono: 6%
  Differential Count: Seg: 61%
  Gamma GT: 51 U/L
  Glucose: 104 mg/dL
  Hct: 36.1%
  Hgb: 12.4 g/dL
  K+: 4.7 mEq/l
  MCH: 11.4 pg
  MCHC: 34.3 G/dl
  MCV: 33.4 fL
  Na+: 150 mEq/l
  Phos: 5.9 mg/dL
  Platlet Count: 788000 µL⁻¹
  RBC: 1.08e+07 µL⁻¹
  Total Bili: 0.1 mg/dL
  Total Prot: 7.4 g/dL
  WBC: 6600 µL⁻¹
[6]
  ALT: 6 U/L
  AST: 67 U/L
  Albumin: 3.8 g/dL
  Alk Phos: 88 U/L
  BUN: 15 mg/dL
  CPK: 77 U/L
  Cholesterol: 74 mg/dL
  Creatinine: 1.2 mg/dL
  Differential Count: Atyp lym: 0%
  Differential Count: Bands: 0%
  Differential Count: Eosin: 10%
  Differential Count: Lymph: 39%
  Differential Count: Mono: 2%
  Differential Count: Seg: 49%
  Gamma GT: 54 U/L
  Glucose: 73 mg/dL
  Hct: 37.3%
  Hgb: 12.7 g/dL
  K+: 4.7 mEq/l
  MCH: 11.2 pg
  MCHC: 34.1 G/dl
  MCV: 32.8 fL
  Na+: 149 mEq/l
  Phos: 6.6 mg/dL
  Platlet Count: 677000 µL⁻¹
  RBC: 1.14e+07 µL⁻¹
  Total Bili: 0.1 mg/dL
  Total Prot: 6.8 g/dL
  WBC: 4990 µL⁻¹
[7]
  ALT: 9 U/L
  AST: 61 U/L
  Albumin: 4.1 g/dL
  Alk Phos: 72 U/L
  BUN: 16 mg/dL
